Numbered stars: 1 amine (or outer) side, 2 acyl side, 3 side chain; on linkers, the order of the positions; unused ones are H or OH. Side chains are listed from the residue outwards. Peptide text beside a SMILES is read from it. * marks the point of attachment. Decanoyl(10-(4-HOOC-PhO)) = O=C(O)c1ccc(OCCCCCCCCCC(=O)*)cc1; γGlu = O=C(O)[C@H](CCC(=O)[*:2])N[*:1]; C14 diacid = O=C(O)CCCCCCCCCCCCC(=O)*; AEEA = NCCOCCOCC(=O)O
Legend:
human GLP-1 receptor = biological target: T1, human GLP-1 receptor (Homo sapiens, UniProt P43220); assay: GLP-1 receptor binding: displacement of 125I-GLP-1 (SPA) at low and high albumin; conditions: high albumin, 2.0% HSA; read-out: IC50/nM (high HSA)
T1 construct: expressed in transfected cells; membranes
Description: The purpose of this experiment is to investigate the binding to the GLP-1 receptor of the GLP-1 derivatives, and how the binding is potentially influenced by the presence of albumin. This is done in an in vitro experiment as described below.
In order to test the binding of the derivatives to albumin, the assay was performed with a low concentration of albumin (0.001%—corresponding to the residual amount thereof in the tracer), as well as with a high concentration of albumin (2.0% added). A shift in the binding affinity, IC50, is an indication that the peptide in question binds to albumin, and thereby a prediction of a potential protracted pharmacokinetic profile of the peptide in question in animal models.
Species (in vitro): Hamster
Biological End Point: Receptor Binding
A stable transfected cell line and a high expressing clone were selected for screening. The cells were grown at 5% CO2 in DMEM, 10% FCS, 1% Pen/Strep (Penicillin/Streptomycin) and 1.0 mg/ml of the selection marker G418.
The cells (approx. 80% confluence) were washed twice in PBS and harvested with Versene (aqueous solution of the tetrasodium salt of ethylenediaminetetraacetic acid), following which they were separated by centrifugation at 1000 rpm for 5 min. The cells/cell pellet must be kept on ice to the extent possible in the subsequent steps. The cell pellet was homogenised with Ultrathurrax for 20-30 seconds in a suitable amount of Buffer 1 (depending on the amount of cells, but e.g. 10 ml). The homogenate was centrifuged at 20000 rpm for 15 minutes. The pellet was resuspended (homogenised) in 10 ml Buffer 2 and re-centrifuged. This step was repeated once more. The resulting pellet was resuspended in Buffer 2, and the protein concentration was determined. The membranes were stored at minus 80° C.
Buffer 1: 20 mM Na-HEPES+10 mM EDTA, pH 7.4
Buffer 2: 20 mM Na-HEPES+0.1 mM EDTA, pH 7.4
Test compounds, membranes, SPA-particles and [^125I]-GLP-1(7-36)NH2 were diluted in assay buffer. 50 ul (micro liter) HSA (“high albumin” experiment containing 2% HSA), or buffer (“low albumin” experiment containing 0.001% HSA), was added to Optiplate, and 25 ul of test compounds were added. 5-10 ug membrane protein/sample was added (50 ul) corresponding to 0.1-0.2 mg protein/ml (to be preferably optimised for each membrane preparation). SPA-particles (Wheatgerm agglutinin SPA beads, Perkin Elmer, #RPNQ0001) were added in an amount of 0.5 mg/well (50 ul). The incubation was started with [^125I]-GLP-1]-(7-36)NH2 (final concentration 0.06 nM corresponding to 49.880 DPM, 25 ul). The plates were sealed with PlateSealer and incubated for 120 minutes at 30° C. while shaking. The plates were centrifuged (1500 rpm, 10 min) and counted in Topcounter.

[1] = Estimate of oral bioavailability: gut injection in rat (caprate), exposure in plasma; assay type: in vivo; conditions: injection in jejunum, 1000 uM in 55 mg/ml sodium caprate, plasma concentration (pM) at 30 min divided by dosing solution concentration (μM), mean n=4
Description: The GLP-1 derivatives were tested in a concentration of 1000 uM in a solution of 55 mg/ml sodium caprate.
Male Sprague Dawley rats with a body weight upon arrival of approximately 240 g were obtained from Taconic (Denmark) and assigned to the different treatments by simple randomisation, 4 rats per group.
The GLP-1 derivatives were administered in the jejunum either in the proximal part (10 cm distal for the duodenum) or in the mid-intestine (50 cm proximal for the cecum). A PE50-catheter, 10 cm long was inserted into the jejunum, forwarded at least 1.5 cm into the jejunum, and secured before dosing by ligature around the gut and the catheter with 3/0 suture distal to tip to prevent leak or catheter displacement. Catheter was placed without syringe and needle and 2 ml saline was administered into abdomen before closing the incision with wound clips.
100 μl of the respective GLP-1 derivative was injected into the jejunal lumen through the catheter with a 1 ml syringe. Subsequently, 200 μl of air was pushed into the jejunal lumen with another syringe to “flush” the catheter. This syringe was leaved connected to the catheter to prevent flow back into the catheter.
Blood samples (200 ul) were collected at desired intervals (usually at times 0, 10, 30, 60, 120 and 240 min) into EDTA tubes from the tail vein and centrifuged 5 minutes, 10000G, at 4° C. within 20 minutes. […] 12, p. 240-247. The donor beads were coated with streptavidin, while acceptor beads were conjugated with a monoclonal antibody recognising a mid-/C-terminal epitope of the peptide. Another monoclonal antibody, specific for the N-terminus, was biotinylated. The three reactants were combined with the analyte and formed a two-sited immuno-complex. Illumination of the complex released singlet oxygen atoms from the donor beads, which were channeled into the acceptor beads and triggered chemiluminescence which was measured in an Envision plate reader. The amount of light was proportional to the concentration of the compound.
After the blood sampling the rats were sacrificed under anaesthesia and the abdomen was opened to verify correct catheter placement.
The mean (n=4) plasma concentrations (pmol/l) were determined as a function of time.

T1 sequence (P43220 24-463): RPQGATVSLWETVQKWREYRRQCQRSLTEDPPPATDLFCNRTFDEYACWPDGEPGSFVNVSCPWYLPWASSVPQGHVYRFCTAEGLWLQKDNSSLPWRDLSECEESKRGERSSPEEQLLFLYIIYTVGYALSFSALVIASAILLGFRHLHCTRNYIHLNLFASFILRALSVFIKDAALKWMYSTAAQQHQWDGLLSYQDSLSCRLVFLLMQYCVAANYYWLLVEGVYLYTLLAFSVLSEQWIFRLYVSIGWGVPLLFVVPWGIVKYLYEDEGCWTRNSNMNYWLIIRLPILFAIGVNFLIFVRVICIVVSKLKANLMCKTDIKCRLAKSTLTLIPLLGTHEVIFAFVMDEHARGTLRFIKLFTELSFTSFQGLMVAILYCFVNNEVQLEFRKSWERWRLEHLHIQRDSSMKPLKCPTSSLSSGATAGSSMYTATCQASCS

SMILES	IC50 (human GLP-1 receptor)	Dose-corrected exposure at 30 min [1]
CC[C@H](C)[C@H](NC(=O)[C@H](Cc1ccccc1)NC(=O)[C@H](CCCCNC(=O)COCCOCCNC(=O)COCCOCCNC(=O)CC[C@H](NC(=O)CCCCCCCCCOc1ccc(C(=O)O)cc1)C(=O)O)NC(=O)[C@H](CCCNC(=N)N)NC(=O)[C@H](C)NC(=O)[C@H](C)NC(=O)[C@H](CCC(N)=O)NC(=O)[C@H](CCC(=O)O)NC(=O)[C@H](CCC(=O)O)NC(=O)[C@H](CC(C)C)NC(=O)[C@H](Cc1ccc(O)cc1)NC(=O)[C@H](CO)NC(=O)[C@H](CO)NC(=O)[C@@H](NC(=O)[C@H](CC(=O)O)NC(=O)[C@H](CO)NC(=O)[C@@H](NC(=O)[C@H](Cc1ccccc1)NC(=O)[C@@H](NC(=O)CNC(=O)[C@H](CCC(=O)O)NC(=O)[C@H](C)NC(=O)[C@@H](N)Cc1c[nH]cn1)[C@@H](C)O)[C@@H](C)O)C(C)C)C(=O)N[C@@H](C)C(=O)N[C@@H](Cc1c[nH]c2ccccc12)C(=O)N[C@@H](CC(C)C)C(=O)N[C@H](C(=O)N[C@@H](CCCNC(=N)N)C(=O)NCC(=O)N[C@@H](CCCCNC(=O)COCCOCCNC(=O)COCCOCCNC(=O)CC[C@H](NC(=O)CCCCCCCCCOc1ccc(C(=O)O)cc1)C(=O)O)C(=O)O)C(C)C [Example 3, N^ε27-[2-[2-[2-[[2-[2-[2-[[(4S)-4-carboxy-4-[10-(4-carboxyphenoxy)decanoylamino]butanoyl]amino]ethoxy]ethoxy]acetyl]amino]ethoxy]ethoxy]acetyl], N^ε36-[2-[2-[2-[[2-[2-[2-[[(4S)-4-carboxy-4-[10-(4-carboxyphenoxy)decanoylamino]butanoyl]amino]ethoxy]ethoxy]acetyl]amino]ethoxy]ethoxy]acetyl]-[Glu^22,Arg^26,Lys^27,Arg^34,Lys^36],des-Gly37-GLP-1-(7-36)-peptide] (H-HAEGTFTSDVSSYLEEQAARK([AEEA-AEEA-γGlu-Decanoyl(10-(4-HOOC-PhO))])FIAWLVRGK([AEEA-AEEA-γGlu-Decanoyl(10-(4-HOOC-PhO))])-OH; N-terminus and C-terminus assumed)	29 nM	67
CC[C@H](C)[C@H](NC(=O)[C@H](Cc1ccccc1)NC(=O)[C@H](CCCCNC(=O)CC[C@H](NC(=O)COCCOCCNC(=O)COCCOCCNC(=O)CCCCCCCCCCCCC(=O)O)C(=O)O)NC(=O)[C@H](CCCNC(=N)N)NC(=O)[C@H](C)NC(=O)[C@H](C)NC(=O)[C@H](CCC(N)=O)NC(=O)[C@H](CCCCNC(=O)CC[C@H](NC(=O)COCCOCCNC(=O)COCCOCCNC(=O)CCCCCCCCCCCCC(=O)O)C(=O)O)NC(=O)[C@H](CCC(=O)O)NC(=O)[C@H](CC(C)C)NC(=O)[C@H](Cc1ccc(O)cc1)NC(=O)[C@H](CO)NC(=O)[C@H](CO)NC(=O)[C@@H](NC(=O)[C@H](CC(=O)O)NC(=O)[C@H](CO)NC(=O)[C@@H](NC(=O)[C@H](Cc1ccccc1)NC(=O)[C@@H](NC(=O)CNC(=O)[C@H](CCC(=O)O)NC(=O)[C@H](C)NC(=O)[C@@H](N)Cc1c[nH]cn1)[C@@H](C)O)[C@@H](C)O)C(C)C)C(=O)N[C@@H](C)C(=O)N[C@@H](Cc1c[nH]cn1)C(=O)N[C@@H](CC(C)C)C(=O)N[C@H](C(=O)NCC(=O)O)C(C)C [Example 14, N^ε22-[(4S)-4-carboxy-4-[[2-[2-[2-[[2-[2-[2-(13-carboxytridecanoylamino)ethoxy]ethoxy]acetyl]amino]ethoxy]ethoxy]acetyl]amino]butanoyl], N^ε27-[(4S)-4-carboxy-4-[[2-[2-[2-[[2-[2-[2-(13-carboxytridecanoylamino)ethoxy]ethoxy]acetyl]amino]ethoxy]ethoxy]acetyl]amino]butanoyl]-[Lys^22,Arg^26,Lys^27,His^31,Gly^34]-GLP-1-(7-34)-peptide] (H-HAEGTFTSDVSSYLEK([γGlu-AEEA-AEEA-C14 diacid])QAARK([γGlu-AEEA-AEEA-C14 diacid])FIAHLVG-OH; N-terminus and C-terminus assumed)		121
CC[C@H](C)[C@H](NC(=O)[C@H](Cc1ccccc1)NC(=O)[C@H](CCCCNC(=O)CC[C@H](NC(=O)COCCOCCNC(=O)COCCOCCNC(=O)CCCCCCCCCCCCC(=O)O)C(=O)O)NC(=O)[C@H](CCCNC(=N)N)NC(=O)[C@H](C)NC(=O)[C@H](CCCCNC(=O)CC[C@H](NC(=O)COCCOCCNC(=O)COCCOCCNC(=O)CCCCCCCCCCCCC(=O)O)C(=O)O)NC(=O)[C@H](CCC(N)=O)NC(=O)[C@H](CCC(=O)O)NC(=O)[C@H](CCC(=O)O)NC(=O)[C@H](CC(C)C)NC(=O)[C@H](Cc1ccc(O)cc1)NC(=O)[C@H](CO)NC(=O)[C@H](CO)NC(=O)[C@@H](NC(=O)[C@H](CC(=O)O)NC(=O)[C@H](CO)NC(=O)[C@@H](NC(=O)[C@H](Cc1ccccc1)NC(=O)[C@@H](NC(=O)CNC(=O)[C@H](CCC(=O)O)NC(=O)[C@H](C)NC(=O)[C@@H](N)Cc1c[nH]cn1)[C@@H](C)O)[C@@H](C)O)C(C)C)C(=O)N[C@@H](C)C(=O)N[C@@H](Cc1c[nH]cn1)C(=O)N[C@@H](CC(C)C)C(=O)N[C@H](C(=O)NCC(=O)O)C(C)C [Example 22, N^ε24-[(4S)-4-carboxy-4-[[2-[2-[2-[[2-[2-[2-(13-carboxytridecanoylamino)ethoxy]ethoxy]acetyl]amino]ethoxy]ethoxy]acetyl]amino]butanoyl], N^ε27-[(4S)-4-carboxy-4-[[2-[2-[2-[[2-[2-[2-(13-carboxytridecanoylamino)ethoxy]ethoxy]acetyl]amino]ethoxy]ethoxy]acetyl]amino]butanoyl]-[Glu^22,Lys^24,Arg^26,Lys^27,His^31,Gly^34]-GLP-1-(7-34)-peptide] (H-HAEGTFTSDVSSYLEEQK([γGlu-AEEA-AEEA-C14 diacid])ARK([γGlu-AEEA-AEEA-C14 diacid])FIAHLVG-OH)		275
